Laboratory results from PMC6790694, “Selective Modification of Ribosomally Synthesized and Post‐Translationally Modified Peptides (RiPPs) through Diels–Alder Cycloadditions on Dehydroalanine Residues” (Chemistry (Weinheim an Der Bergstrasse, Germany), 2019).
In brackets after ≈: the same amount, converted by molar mass.

Legend:
E. faecalis (ATCC29212) = test: MIC assay, broth microdilution, E. faecalis; assay type: cell-based, Enterococcus faecalis; details: supplement table SI-21; E. faecalis LMG 08222 (ATCC29212); broth microdilution in CAMHB + 3 % v/v lysed horse blood, 37 °C, 20 h; tested three times in triplicates
Description: (§1) Moreover, variations in activity towards both strains and between the different site‐ and endo/exo isomers remained limited to a factor of 4. The activity of 3 also very closely resembles that of thiostrepton, showing that even removing part of the tail region has little effect on its activity.
(§2) Biological Activity Assays
(§3) Preparation of antimicrobial agents
(§4) Thiostrepton and its variants were dissolved and diluted in DMSO to a concentration of 640 µg/ml, and stored at -20 °C. Before use, they were diluted 20 fold in Mueller Hinton Broth 2 (CAMHB; cation-adjusted, Sigma-Aldrich).
(§5) Dilution of the thiostrepton compounds in CAMHB was done in 50 % volume steps to prevent precipitation.
(§6) Vancomycin for the quality controls was dissolved in MQ to a concentration of 256 mg/ml and stored at -20 °C.
(§7) It was diluted in CAMHB to a final concentration of 256 µg/ml before use.
(§8) Strains and growth conditions
(§9) The MIC values of thiostrepton and its variants were determined for Staphylococcus aureus LMG 10147 […]
(§10) from glycerol stocks on LB (Formedium™) and GM17 (Difco™) plates respectively. […]
(§11) Well 11, lacking the test compound, functions as a growth control and well 12 as a sterility control. […] To ensure MIC data reliability, MIC values for vancomycin were determined for every series of tests performed, as described […]

S. aureus (ATCC29213) = test: MIC assay, broth microdilution, S. aureus; assay type: cell-based, Staphylococcus aureus; details: supplement table SI-21; S. aureus LMG 10147 (ATCC29213); broth microdilution in CAMHB, 37 °C, 20 h; tested three times in triplicates
Description: as §1, §2, §3, §4, §5, §6, §7, §8, §9, §10, §11

`C=C(NC(=O)C(=C)NC(=O)c1csc(C2=N[C@@H]3c4csc(n4)[C@H]4NC(=O)c5csc(n5)[C@H]([C@](C)(O)[C@@H](C)O)NC(=O)[C@H]5CSC(=N5)/C(=C/C)NC(=O)[C@H]([C@@H](C)O)NC(=O)c5csc(n5)[C@]3(CC2)NC(=O)[C@H](C)NC(=O)C(=C)NC(=O)[C@H](C)NC(=O)[C@H]([C@@H](C)CC)N[C@@H]2C=Cc3c([C@H](C)O)cc(nc3[C@H]2O)C(=O)O[C@@H]4C)n1)C(N)=O` [Thiostrepton, thiostrepton] was tested, and the “MIC against E. faecalis (VSE)” value (E. faecalis (ATCC29212)) was 0.5 µg/mL and the “MIC against S. aureus (MSSA)” value (S. aureus (ATCC29213)) was 0.5 µg/mL (≈ 0.3 µM).
